# Test results as given in the supplement of paper PMC10307832.
# Tests used:
# Test in all cases: relative viability (nuclei count vs DMSO), 5 days (fraction); higher = more cells survive
# Cediranib + Dasatinib = compound: COc1cc2c(Oc3ccc4[nH]c(C)cc4c3F)ncnc2cc1OCCCN1CCCC1 [Cediranib] + Cc1nc(Nc2ncc(C(=O)Nc3c(C)cccc3Cl)s2)cc(N2CCN(CCO)CC2)n1 [Dasatinib] (partner 0.075 µM)
# Method in brief: (§1)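 Lung cancer cell lines in 1536-well plates were dosed by pin tool the day after seeding, either with one drug alone or with a fixed anchor-drug dose plus five library-drug doses (not always all listed) in √10 steps. After 5 days, cells were fixed and their nuclei stained in one step (final 0.05% Triton X-100, 1% formaldehyde, 1 ug/ml Hoechst), then counted on 4× images. Relative viability is the nuclei count in treated wells divided by that in vehicle wells. Values are medians of duplicate plates.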
# Cediranib + Vorinostat = compound: COc1cc2c(Oc3ccc4[nH]c(C)cc4c3F)ncnc2cc1OCCCN1CCCC1 [Cediranib] + O=C(CCCCCCC(=O)Nc1ccccc1)NO [Vorinostat] (partner 1 µM)
# Method in brief: as §1
# Decitabine + Pemetrexed = compound: Nc1ncn([C@H]2C[C@H](O)[C@@H](CO)O2)c(=O)n1 [Decitabine] + Nc1nc2[nH]cc(CCc3ccc(C(=O)N[C@@H](CCC(=O)O)C(=O)O)cc3)c2c(=O)[nH]1 [Pemetrexed] (partner 0.2 µM)
# Method in brief: as §1
# Decitabine + Luminespib = compound: Nc1ncn([C@H]2C[C@H](O)[C@@H](CO)O2)c(=O)n1 [Decitabine] + CCNC(=O)c1noc(-c2cc(C(C)C)c(O)cc2O)c1-c1ccc(CN2CCOCC2)cc1 [Luminespib] (partner 0.01 µM)
# Method in brief: as §1
cell line,measurement,setting,value
NCI-H647,relative viability,Cediranib + Dasatinib; first compound 0.04 µM,0.215
same,relative viability,Cediranib + Dasatinib; first compound 0.1265 µM,0.177
same,relative viability,Cediranib + Dasatinib; first compound 0.4 µM,0.102
same,relative viability,Cediranib + Dasatinib; first compound 1.265 µM,0.22
same,relative viability,Cediranib + Dasatinib; first compound 4 µM,0.224
same,relative viability,Cediranib + Vorinostat; first compound 0.04 µM,0.689
same,relative viability,Cediranib + Vorinostat; first compound 0.1265 µM,0.594
same,relative viability,Cediranib + Vorinostat; first compound 0.4 µM,0.56
same,relative viability,Cediranib + Vorinostat; first compound 1.265 µM,0.509
same,relative viability,Cediranib + Vorinostat; first compound 4 µM,0.684
same,relative viability,Decitabine + Pemetrexed; first compound 0.04 µM,0.168
same,relative viability,Decitabine + Pemetrexed; first compound 0.1265 µM,0.149
same,relative viability,Decitabine + Pemetrexed; first compound 0.4 µM,0.12
same,relative viability,Decitabine + Pemetrexed; first compound 1.265 µM,0.13
same,relative viability,Decitabine + Pemetrexed; first compound 4 µM,0.112
same,relative viability,Decitabine + Luminespib; first compound 0.04 µM,0.105
same,relative viability,Decitabine + Luminespib; first compound 0.1265 µM,0.141
same,relative viability,Decitabine + Luminespib; first compound 0.4 µM,0.127
same,relative viability,Decitabine + Luminespib; first compound 1.265 µM,0.12
same,relative viability,Decitabine + Luminespib; first compound 4 µM,0.103
NCI-H650,relative viability,Cediranib + Dasatinib; first compound 0.04 µM,0.434
same,relative viability,Cediranib + Dasatinib; first compound 0.1265 µM,0.458
same,relative viability,Cediranib + Dasatinib; first compound 0.4 µM,0.434
same,relative viability,Cediranib + Dasatinib; first compound 1.265 µM,0.453
same,relative viability,Cediranib + Dasatinib; first compound 4 µM,0.482
same,relative viability,Cediranib + Vorinostat; first compound 0.04 µM,0.363
same,relative viability,Cediranib + Vorinostat; first compound 0.1265 µM,0.319
same,relative viability,Cediranib + Vorinostat; first compound 0.4 µM,0.526
same,relative viability,Cediranib + Vorinostat; first compound 1.265 µM,0.356
same,relative viability,Cediranib + Vorinostat; first compound 4 µM,0.454
same,relative viability,Decitabine + Pemetrexed; first compound 0.04 µM,0.686
same,relative viability,Decitabine + Pemetrexed; first compound 0.1265 µM,0.588
same,relative viability,Decitabine + Pemetrexed; first compound 0.4 µM,0.382
same,relative viability,Decitabine + Pemetrexed; first compound 1.265 µM,0.273
same,relative viability,Decitabine + Pemetrexed; first compound 4 µM,0.266
same,relative viability,Decitabine + Luminespib; first compound 0.04 µM,0.627
same,relative viability,Decitabine + Luminespib; first compound 0.1265 µM,0.652
same,relative viability,Decitabine + Luminespib; first compound 0.4 µM,0.489
same,relative viability,Decitabine + Luminespib; first compound 1.265 µM,0.314
same,relative viability,Decitabine + Luminespib; first compound 4 µM,0.315
NCI-H661,relative viability,Cediranib + Dasatinib; first compound 0.04 µM,1.01
same,relative viability,Cediranib + Dasatinib; first compound 0.1265 µM,1.28
same,relative viability,Cediranib + Dasatinib; first compound 0.4 µM,0.842
same,relative viability,Cediranib + Dasatinib; first compound 1.265 µM,0.926
same,relative viability,Cediranib + Dasatinib; first compound 4 µM,0.976
same,relative viability,Cediranib + Vorinostat; first compound 0.04 µM,0.905
same,relative viability,Cediranib + Vorinostat; first compound 0.1265 µM,0.796
same,relative viability,Cediranib + Vorinostat; first compound 0.4 µM,0.763
same,relative viability,Cediranib + Vorinostat; first compound 1.265 µM,0.773
same,relative viability,Cediranib + Vorinostat; first compound 4 µM,0.911
same,relative viability,Decitabine + Pemetrexed; first compound 0.04 µM,0.779
same,relative viability,Decitabine + Pemetrexed; first compound 0.1265 µM,0.657
same,relative viability,Decitabine + Pemetrexed; first compound 0.4 µM,0.572
same,relative viability,Decitabine + Pemetrexed; first compound 1.265 µM,0.481
same,relative viability,Decitabine + Pemetrexed; first compound 4 µM,0.404
same,relative viability,Decitabine + Luminespib; first compound 0.04 µM,0.937
same,relative viability,Decitabine + Luminespib; first compound 0.1265 µM,0.771
same,relative viability,Decitabine + Luminespib; first compound 0.4 µM,0.628
same,relative viability,Decitabine + Luminespib; first compound 1.265 µM,0.534
same,relative viability,Decitabine + Luminespib; first compound 4 µM,0.452
NCI-H838,relative viability,Cediranib + Dasatinib; first compound 0.04 µM,0.292
same,relative viability,Cediranib + Dasatinib; first compound 0.1265 µM,0.268
same,relative viability,Cediranib + Dasatinib; first compound 0.4 µM,0.285
same,relative viability,Cediranib + Dasatinib; first compound 1.265 µM,0.241
same,relative viability,Cediranib + Dasatinib; first compound 4 µM,0.315
same,relative viability,Cediranib + Vorinostat; first compound 0.04 µM,0.703
same,relative viability,Cediranib + Vorinostat; first compound 0.1265 µM,0.712
same,relative viability,Cediranib + Vorinostat; first compound 0.4 µM,0.678
same,relative viability,Cediranib + Vorinostat; first compound 1.265 µM,0.763
same,relative viability,Cediranib + Vorinostat; first compound 4 µM,0.838
same,relative viability,Decitabine + Pemetrexed; first compound 0.04 µM,0.225
same,relative viability,Decitabine + Pemetrexed; first compound 0.1265 µM,0.236
same,relative viability,Decitabine + Pemetrexed; first compound 0.4 µM,0.2
same,relative viability,Decitabine + Pemetrexed; first compound 1.265 µM,0.19
same,relative viability,Decitabine + Pemetrexed; first compound 4 µM,0.198
same,relative viability,Decitabine + Luminespib; first compound 0.04 µM,0.213
same,relative viability,Decitabine + Luminespib; first compound 0.1265 µM,0.188
same,relative viability,Decitabine + Luminespib; first compound 0.4 µM,0.296
same,relative viability,Decitabine + Luminespib; first compound 1.265 µM,0.191
same,relative viability,Decitabine + Luminespib; first compound 4 µM,0.165
NCI-H1355,relative viability,Cediranib + Dasatinib; first compound 0.04 µM,0.686
same,relative viability,Cediranib + Dasatinib; first compound 0.1265 µM,0.745
same,relative viability,Cediranib + Dasatinib; first compound 0.4 µM,0.658
same,relative viability,Cediranib + Dasatinib; first compound 1.265 µM,0.655
same,relative viability,Cediranib + Dasatinib; first compound 4 µM,0.747
same,relative viability,Cediranib + Vorinostat; first compound 0.04 µM,0.688
same,relative viability,Cediranib + Vorinostat; first compound 0.1265 µM,0.684
same,relative viability,Cediranib + Vorinostat; first compound 0.4 µM,0.572
same,relative viability,Cediranib + Vorinostat; first compound 1.265 µM,0.544
same,relative viability,Cediranib + Vorinostat; first compound 4 µM,0.616
same,relative viability,Decitabine + Pemetrexed; first compound 0.04 µM,0.701
same,relative viability,Decitabine + Pemetrexed; first compound 0.1265 µM,0.513
same,relative viability,Decitabine + Pemetrexed; first compound 0.4 µM,0.38
same,relative viability,Decitabine + Pemetrexed; first compound 1.265 µM,0.323
same,relative viability,Decitabine + Pemetrexed; first compound 4 µM,0.314
same,relative viability,Decitabine + Luminespib; first compound 0.04 µM,0.538
same,relative viability,Decitabine + Luminespib; first compound 0.1265 µM,0.483
same,relative viability,Decitabine + Luminespib; first compound 0.4 µM,0.454
same,relative viability,Decitabine + Luminespib; first compound 1.265 µM,0.298
same,relative viability,Decitabine + Luminespib; first compound 4 µM,0.258
NCI-H1395,relative viability,Cediranib + Dasatinib; first compound 0.04 µM,0.44
same,relative viability,Cediranib + Dasatinib; first compound 0.1265 µM,0.45
same,relative viability,Cediranib + Dasatinib; first compound 0.4 µM,0.37
same,relative viability,Cediranib + Dasatinib; first compound 1.265 µM,0.374
same,relative viability,Cediranib + Dasatinib; first compound 4 µM,0.405
same,relative viability,Cediranib + Vorinostat; first compound 0.04 µM,0.686
same,relative viability,Cediranib + Vorinostat; first compound 0.1265 µM,0.689
same,relative viability,Cediranib + Vorinostat; first compound 0.4 µM,0.601
same,relative viability,Cediranib + Vorinostat; first compound 1.265 µM,0.645
same,relative viability,Cediranib + Vorinostat; first compound 4 µM,0.711
same,relative viability,Decitabine + Pemetrexed; first compound 0.04 µM,0.64
same,relative viability,Decitabine + Pemetrexed; first compound 0.1265 µM,0.685
same,relative viability,Decitabine + Pemetrexed; first compound 0.4 µM,0.744
same,relative viability,Decitabine + Pemetrexed; first compound 1.265 µM,0.474
same,relative viability,Decitabine + Pemetrexed; first compound 4 µM,0.484
same,relative viability,Decitabine + Luminespib; first compound 0.04 µM,0.626
same,relative viability,Decitabine + Luminespib; first compound 0.1265 µM,0.661
same,relative viability,Decitabine + Luminespib; first compound 0.4 µM,0.568
same,relative viability,Decitabine + Luminespib; first compound 1.265 µM,0.432
same,relative viability,Decitabine + Luminespib; first compound 4 µM,0.438
NCI-H1437,relative viability,Cediranib + Dasatinib; first compound 0.04 µM,0.455
same,relative viability,Cediranib + Dasatinib; first compound 0.1265 µM,0.543
same,relative viability,Cediranib + Dasatinib; first compound 0.4 µM,0.445
same,relative viability,Cediranib + Dasatinib; first compound 1.265 µM,0.385
same,relative viability,Cediranib + Dasatinib; first compound 4 µM,0.399
same,relative viability,Cediranib + Vorinostat; first compound 0.04 µM,0.875
same,relative viability,Cediranib + Vorinostat; first compound 0.1265 µM,0.778
same,relative viability,Cediranib + Vorinostat; first compound 0.4 µM,0.872
same,relative viability,Cediranib + Vorinostat; first compound 1.265 µM,0.819
same,relative viability,Cediranib + Vorinostat; first compound 4 µM,0.898
same,relative viability,Decitabine + Pemetrexed; first compound 0.04 µM,0.318
same,relative viability,Decitabine + Pemetrexed; first compound 0.1265 µM,0.276
same,relative viability,Decitabine + Pemetrexed; first compound 0.4 µM,0.295
same,relative viability,Decitabine + Pemetrexed; first compound 1.265 µM,0.235
same,relative viability,Decitabine + Pemetrexed; first compound 4 µM,0.214
same,relative viability,Decitabine + Luminespib; first compound 0.04 µM,0.995
same,relative viability,Decitabine + Luminespib; first compound 0.1265 µM,0.825
same,relative viability,Decitabine + Luminespib; first compound 0.4 µM,0.633
same,relative viability,Decitabine + Luminespib; first compound 1.265 µM,0.445
same,relative viability,Decitabine + Luminespib; first compound 4 µM,0.372
NCI-H1650,relative viability,Cediranib + Dasatinib; first compound 0.04 µM,0.343
same,relative viability,Cediranib + Dasatinib; first compound 0.1265 µM,0.384
same,relative viability,Cediranib + Dasatinib; first compound 0.4 µM,0.328
same,relative viability,Cediranib + Dasatinib; first compound 1.265 µM,0.37
same,relative viability,Cediranib + Dasatinib; first compound 4 µM,0.299
same,relative viability,Cediranib + Vorinostat; first compound 0.04 µM,0.629
same,relative viability,Cediranib + Vorinostat; first compound 0.1265 µM,0.546
same,relative viability,Cediranib + Vorinostat; first compound 0.4 µM,0.599
same,relative viability,Cediranib + Vorinostat; first compound 1.265 µM,0.548
same,relative viability,Cediranib + Vorinostat; first compound 4 µM,0.679
same,relative viability,Decitabine + Pemetrexed; first compound 0.04 µM,0.325
same,relative viability,Decitabine + Pemetrexed; first compound 0.1265 µM,0.311
same,relative viability,Decitabine + Pemetrexed; first compound 0.4 µM,0.27
same,relative viability,Decitabine + Pemetrexed; first compound 1.265 µM,0.25
same,relative viability,Decitabine + Pemetrexed; first compound 4 µM,0.25
same,relative viability,Decitabine + Luminespib; first compound 0.04 µM,0.188
same,relative viability,Decitabine + Luminespib; first compound 0.1265 µM,0.182
same,relative viability,Decitabine + Luminespib; first compound 0.4 µM,0.194
same,relative viability,Decitabine + Luminespib; first compound 1.265 µM,0.201
same,relative viability,Decitabine + Luminespib; first compound 4 µM,0.179
